Assays:
FaDu = experiment: Cytotoxicity assay (propidium iodide), FaDu; assay type: cell-based; conditions: Homo sapiens; FaDu (C11a, hypopharyngeal); 48 hours
Experimental: (§1) Cells from cell lines as mentioned in the table given below were seeded at a density of 3000 cells/well in a white opaque 96-well plate. Following incubation at 37° C./5% CO2 for a period of 18-24 hours, the cells were treated with various concentrations (stock solution was prepared in DMSO and subsequent dilutions were made in media as per ATCC guidelines) of the representative compounds of present invention (refer table 3) for a period of 48 hours. At the end of treatment, the spent culture medium was discarded, the cells were washed with 1×PBS and 200 μl of 7 μg/ml propidium iodide was added to each well. The plates were frozen at −70° C. for at least 24 hours. For analysis, the plates were brought to RT, allowed to thaw and were read in PolarStar fluorimeter with the fluorescence setting. The percentage of viable cells in the non treated set of wells was considered to be 100 and the percentage viability following treatment was calculated accordingly. IC50 values were calculated from graphs plotted using these percentages.

STAT3 = STAT3 bioassay (Hela Stat3-luc, luciferase); assay type: cell-based; conditions: Homo sapiens, Oncostatin M induction
Method in brief: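 Hela Stat3-luc cells (20,000/well, 24 h) pretreated with compound 1 h, then induced with 100 ng/ml final Oncostatin M for 7-8 h at 37 °C. Luciferase luminescence after lysis; percent inhibition versus induction control, IC50 from these percentages.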

A2780 = experiment: Cytotoxicity assay (propidium iodide), A2780; assay type: cell-based; conditions: Homo sapiens; A2780 (C3a, ovarian); 48 hours
OVCAR 3 = experiment: Cytotoxicity assay (propidium iodide), OVCAR 3; assay type: cell-based; conditions: Homo sapiens; OVCAR 3 (C3c, ovarian); 48 hours
U266B1 = experiment: Cytotoxicity assay (propidium iodide), U266B1; assay type: cell-based; conditions: U266B1 (C7a, multiple myeloma); 48 hours
Experimental: as §1

U 87 MG = experiment: Cytotoxicity assay (propidium iodide), U 87 MG; assay type: cell-based; conditions: Homo sapiens; U 87 MG (C8b, glioblastoma); 48 hours
Experimental: as §1

MDA MB 231 = experiment: Cytotoxicity assay (propidium iodide), MDA MB 231; assay type: cell-based; conditions: Homo sapiens; MDA MB 231 (C6a, breast); 48 hours
Experimental: as §1

PC3 = experiment: Cytotoxicity assay (propidium iodide), PC3; conditions: Homo sapiens, PC-3, 48 h, read-out: IC50 cytotoxicity
Experimental: as §1

H460 = experiment: Cytotoxicity assay (propidium iodide), H460; assay type: cell-based; conditions: Homo sapiens, NCI-H460; H460 (C1b, lung); 48 hours
Experimental: as §1

BT 549 = experiment: Cytotoxicity assay (propidium iodide), BT 549; assay type: cell-based; conditions: Homo sapiens; BT 549 (C6d, breast); 48 hours
Experimental: as §1

RPMI 8226 = experiment: Cytotoxicity assay (propidium iodide), RPMI 8226; assay type: cell-based; conditions: Homo sapiens; RPMI 8226 (C7b, multiple myeloma); 48 hours
Experimental: as §1

U 373 = experiment: Cytotoxicity assay (propidium iodide), U 373; assay type: cell-based; conditions: Homo sapiens, U373 MG; U 373 (C8a, glioblastoma); 48 hours
Experimental: as §1

MCF7 = experiment: Cytotoxicity assay (propidium iodide), MCF7; assay type: cell-based; conditions: Homo sapiens; MCF7 (C6c, breast); 48 hours
Experimental: as §1

G361 = experiment: Cytotoxicity assay (propidium iodide), G361; assay type: cell-based; conditions: G-361; G361 (C9a, human melanoma); 48 hours
Experimental: as §1

MDA MB 468 = experiment: Cytotoxicity assay (propidium iodide), MDA MB 468; assay type: cell-based; conditions: Homo sapiens; MDA MB 468 (C6b, breast); 48 hours
Experimental: as §1

[1] = system: DSS-induced colitis in C57BL/6J mice; experiment: Ulcerative colitis, DSS-induced colitis in mice; assay type: in vivo; conditions: 3% DSS, 10 mg/kg orally daily, day 6 to day 10
Experimental: The efficacy of compounds of the present invention on the gross pathology of colitis and proinflammatory mediators was determined by following the method described in Am. J. Physiol. Gastrointest. Liver Physiol.
C57BL/6J mice (6 weeks of age, weighing 18-22 gms) were obtained from Jackson Laboratories (Bar Harbor, Me.) and housed in individually ventilated cage (IVC) system. Colitis was induced in mice by replacing drinking water with 3% (w/v) DSS (molecular weight 35-50 kDa, ICN Biomedicals, Aurora, Ohio, US) in water. This solution was made available to the experimental animals ad libitum, from day 0 to day 10. A batch of six naive animals received water instead of DSS during this period.
DSS-induction of colitis was manifested with increase in clinical disease activity index associated with weight loss and presence of blood in feces.
The animals were weighed every day and the record of body weights was maintained. The compound of Example 25 (10 mg/kg, prepared at a concentration of 1 mg/mL in 0.5% (w/v) CMC after mixing a drop of Tween 20) was administered orally daily to the colitis induced animals. This treatment was initiated on day 6 and continued up to day 10. During this period, DSS control animals received DSS, positive control animals received 5-aminosalicylic acid (5-ASA, 25 mg/kg, p.o.) and naïve animals received 0.5% CMC once daily.
At the end of DSS treatment period, mice were humanely euthanized with 15% urethane (i.p.). The whole colon (i.e., including ceacum, proximal colon and distal colon) was excised.
The colon was macrosopically assessed by determining • a) Rectal bleeding/blood in faeces • b) Stool consistency • c) Blood in colon • d) Colon length • e) % weight loss • f) Blood hemoglobin concentration
Disease Activity Index: various features were scored as delineated in the following table.
Disease activity index is the sum of scores of all features.

## CN(N=Cc1cnc2ccc(-c3cccnc3)cn12)S(=O)(=O)c1cccc(F)c1 [Example 5, 3-Fluoro-N-methyl-N′-((6-(pyridine-3-yl)imidazo[1,2-a]pyridine-3-yl)methylene)benzenesulfonohydrazide]
FaDu
  IC50: 0.01 to 5 µM
STAT3
  IC50: 0.1 to 5 µM
A2780
  IC50: 0.01 to 5 µM
OVCAR 3
  IC50: 0.01 to 5 µM

## CN(N=Cc1cnc2ccc(-c3cccnc3)cn12)S(=O)(=O)c1ccc(F)cc1 [Example 6, 4-Fluoro-N-methyl-N′-((6-(pyridine-3-yl)imidazo[1,2-a]pyridine-3-yl)methylene)benzenesulfonohydrazide]
FaDu
  IC50: 0.01 to 5 µM
STAT3
  IC50: 5 to 10 µM
A2780
  IC50: 0.01 to 5 µM
OVCAR 3
  IC50: 0.01 to 5 µM

## CN(N=Cc1cnc2ccc(-c3cccnc3)cn12)S(=O)(=O)c1cc(F)cc(F)c1 [Example 16, 3,5-Difluoro-N-methyl-N′-((6-(pyridine-3-yl)imidazo[1,2-a]pyridine-3-yl)methylene) benzenesulfonohydrazide]
STAT3
  IC50: 5 to 10 µM

## Cc1ccc(F)cc1S(=O)(=O)N(C)N=Cc1cnc2ccc(-c3cccnc3)cn12 [Example 21, 5-Fluoro-N, 2-dimethyl-N′-((6-(pyridine-3-yl)imidazo[1,2-a]pyridine-3-yl)methylene) benzenesulfonohydrazide]
U266B1
  IC50: 0.01 to 5 µM
U 87 MG
  IC50: 0.01 to 5 µM
MDA MB 231
  IC50: 0.01 to 5 µM
PC3
  IC50: 0.01 to 5 µM
STAT3
  IC50: 5 to 10 µM
H460
  IC50: 0.01 to 5 µM
BT 549
  IC50: 0.01 to 5 µM
RPMI 8226
  IC50: 0.01 to 5 µM
A2780
  IC50: 0.01 to 5 µM
U 373
  IC50: 0.01 to 5 µM
MCF7
  IC50: 0.01 to 5 µM
OVCAR 3
  IC50: 0.01 to 5 µM
G361
  IC50: 0.01 to 5 µM
MDA MB 468
  IC50: 0.01 to 5 µM

## Cc1ccc([N+](=O)[O-])cc1S(=O)(=O)N(C)N=Cc1cnc2ccc(-c3cccnc3)cn12 [Example 25]
MDA MB 231
  IC50: 0.01 to 5 µM
PC3
  IC50: 0.01 to 5 µM
STAT3
  IC50: 0.1 to 5 µM
H460
  IC50: 0.01 to 5 µM
BT 549
  IC50: 0.01 to 5 µM
[1]
  DSS-induced body weight loss: attenuated
  DSS-induced colon bleeding: attenuated
  DSS-induced decrease in hematocrit: inhibited
  DSS-induced disease activity index: reduced
  DSS-induced shortening of colon: inhibited
  rectal bleeding index: improved
A2780
  IC50: 0.01 to 5 µM
MCF7
  IC50: 0.01 to 5 µM
OVCAR 3
  IC50: 0.01 to 5 µM
